Experiments:
[1] = Partition coefficient (logP); type: physicochemical; conditions: octanol/water
[2] = pKa value of the compound; type: physicochemical
[3] = target: T1, Corticotropin releasing factor receptor (Rattus norvegicus, UniProt P47866+P35353); test: In vitro binding affinity against Corticotropin releasing factor receptor in rat cortical homogenates
Canis familiaris [4] = test: Area under the curve at a dose of 1 mg/kg (oral); type: ADME, organism-based, Canis lupus familiaris; set-up: dose 1 mg/kg; conditions: dog, in vivo
Canis familiaris [5] = test: Area under the curve at i.v. dose of 0.2 mg/kg; type: ADME, organism-based, Canis lupus familiaris; set-up: dose 0.2 mg/kg, route intravenous; conditions: dog, in vivo, iv
[6] = Maximal plasma concentration at a dose of 1 mg/kg (oral); type: ADME, organism-based, Canis lupus familiaris; set-up: route oral, dose 1 mg/kg; conditions: dog
[7] = Oral bioavailability at a dose of 1 mg/kg in dogs; type: ADME, organism-based, Canis lupus familiaris; conditions: dog, in vivo
[8] = (§1) Half life was evaluated in dog; type: ADME, organism-based, Canis lupus familiaris; conditions: in vivo
Canis familiaris [9] = organism: Canis familiaris; test: as §1; type: ADME, organism-based, Canis lupus familiaris; conditions: in vivo
[10] = Clearance value at a dose of 0.2 mg/kg i.v.; type: ADME, organism-based, Canis lupus familiaris; set-up: dose 0.2 mg/kg, route intravenous; conditions: dog, in vivo, iv, read-out: Cls (converted)
[11] = Steady state volume of distribution at a dose of 0.2 mg/kg i.v.; type: ADME, organism-based, Canis lupus familiaris; set-up: dose 0.2 mg/kg, route intravenous; conditions: dog, in vivo, iv, read-out: Vss
[12] = target: T1, Corticotropin releasing factor receptor; test: In vitro binding affinity against CRF receptor in rat cortical homogenates

Compound | logP [1] | Ki [3] [nM] | other results
CCc1nc2c(-c3ccc(Cl)cc3Cl)nccc2n1C(CC)C1CC1 (stereo not drawn) | 4.1 | – | –
CCCC(C)n1c(CC)nc2c(-c3ccc(OC(F)F)cc3Cl)ccnc21 (stereo not drawn) | 5.35 | – | –
CCc1nc2c(-c3ccc(Cl)cc3Cl)ccnc2n1C(CC)C1CC1 (stereo not drawn) | 5.56 | – | pKa [2]: 3.86
CCc1nc2c(-c3ccc(Cl)cc3C(F)(F)F)nccc2n1C(CC)C1CC1 (stereo not drawn) | – | 4.4 | –
CCC[C@H](C)n1c(CC)nc2c(-c3ccc(OC(F)(F)F)cc3Cl)nccc21 | – | 2.3 | AUC (Canis familiaris [4]): 0.569 µM·h; AUC (Canis familiaris [5]): 0.341 µM·h; Cmax [6]: 92.4 nM; bioavailability [7]: 33%; half-life [8]: 15.1 h; T1/2 (Canis familiaris [9]): 9.4 h; clearance [10]: 23.3 mL/min/kg; Vd [11]: 19.1 L/kg
CCCC(C)n1c(CC)nc2c(-c3ccc(Cl)cc3Cl)nccc21 (stereo not drawn) | – | 3 | –
CCc1nc2c(-c3ccc(C(F)(F)F)cc3Cl)nccc2n1C(CC)C1CC1 (stereo not drawn) | – | 2.9 | –
CCCC(C)n1c(CC)nc2c(-c3ccc(OC(F)(F)F)cc3Cl)nccc21 (stereo not drawn) | 4.62 | 2.8 | pKa [2]: 5.09
CCc1nc2c(-c3ccc(Cl)cc3C)nccc2n1C(CC)C1CC1 (stereo not drawn) | – | 14 | –
CCC[C@@H](C)n1c(CC)nc2c(-c3ccc(OC(F)(F)F)cc3Cl)nccc21 | – | 1.9 | –
CCc1nc2c(-c3ccc(Cl)cc3Cl)ncnc2n1C(C)C1CC1 (stereo not drawn) | 4.33 | – | pKa [2]: < 3
CCc1nc2c(-c3ccc(OC(F)(F)F)cc3Cl)nccc2n1C(C)CC (stereo not drawn) | – | – | Ki [12]: 7.8 nM
CCCC(C)n1c(CC)nc2c(-c3ccc(C(F)(F)F)cc3Cl)nccc21 (stereo not drawn) | – | 3.5 | –
CCc1nc2c(-c3ccc(C(F)(F)F)cc3Cl)nccc2n1C(CC)CC | – | 5.4 | –
CCCC(C)n1c(CC)nc2c(-c3ccc(OC(F)F)cc3C)nccc21 (stereo not drawn) | – | 9 | –
CCCC(C)n1c(CC)nc2c(-c3ccc(Cl)cc3C)nccc21 (stereo not drawn) | – | 9.1 | –

Reference: ChEMBL document CHEMBL1136412, “Imidazo[4,5-c]pyridines as corticotropin releasing factor receptor ligands” (Bioorg Med Chem Lett, 2003)
